This assay relates to PE13 passaged human breast tumor cells. The assay is described as follows: Xenograft tumor growth after gamma secretase inhibition. It is filed as in vivo. The protocol:
A) The average tumor volume from L-685-458 treated (n=5) versus control (n=7) animals is plotted for each day measured over 37 days. B) The tumor volume of individual L-685-458 treated and control mice is plotted for each day measured.
In alternative embodiments, gamma secretase activity was decreased using the small-molecule inhibitor L-685,458 (Yan et al., 2004, J. Neurosci. 24:2942) and the effect on tumor growth was assessed in a xenograft model. 20,000 PE13 passaged human breast tumor cells were injected into the mammary fat pads of NOD/SCID mice. The mice were then injected subcutaneously daily with 9 mg/kg L-685,458 (n=5) or vehicle control (n=7) for 25 days. Starting on day 11, the tumor volume was measured three times a week for a total of 48 days. […] The tumor volumes for individual mice are plotted in FIG. 13B. Thus inhibiting gamma secretase activity by using a small molecule gamma secretase inhibitor predicted to reduce Notch signaling reduced tumor growth.

For the compound `CC(C)C[C@H](NC(=O)[C@H](Cc1ccccc1)C[C@@H](O)[C@H](Cc1ccccc1)NC(=O)OC(C)(C)C)C(=O)N[C@@H](Cc1ccccc1)C(N)=O` [L-685,458], the “growth of injected tumor cells” value (20,000 PE13 cells in mammary fat pads of NOD/SCID mice, 9 mg/kg subcutaneously daily for 25 days (n=5) vs vehicle control (n=7)) is recorded as “significantly inhibited the growth of injected tumor cells”. The average tumor volume result (NOD/SCID mice, 9 mg/kg s.c. daily for 25 days, measured three times a week from day 11, total 48 days, vs vehicle control) is recorded as “reduced compared to control animals throughout the study”.

The values above are taken from patent US7939263B2, “Compositions and methods for treating and diagnosing cancer” (The Regents of the University of Michigan, priority 2005, dated 2011).
